Here are results for ten compounds from ChEMBL document CHEMBL1201862, “PubChem BioAssay data set” (2004).

The structures appear in SMILES notation. Activity calls are given as the source filed them. Bounds are passed on as bounds.

The target of test [1] is T1, Small ubiquitin-related modifier 1 (Homo sapiens, UniProt P63165). Put plainly: inhibitors of SUMO1 partner interactions, dose response, biochemical, FRET (AID 624383). Format: functional. The note with it: read-out: IC50_Mean.
Test [2] addresses T2, Troponin, cardiac muscle (Homo sapiens, UniProt P19429+P45379+P63316). Description: inhibitors of cardiac thin filament calcium sensitivity, dose response, biochemical, fluorescence, cardiac regulated thin filaments, triplicate IC50 (AID 504742). In kind it is protein-complex assay.
Another test concerns the target Caspase-9 (Homo sapiens, UniProt P55211). Put plainly: caspase-9 enzyme inhibition, dose response, selectivity assay for caspase-6 inhibitor project, biochemical, fluorescence, plate reader, cherry-picked samples (AID 743293).
The target in a further test is Caspase-8 (Homo sapiens, UniProt Q14790). Put plainly: caspase-8 inhibition counter-screen, dose response, selectivity assay for caspase-6 inhibitor project, biochemical, Z-IETD-R110 fluorescence, cherry-picked samples (AID 743294). (In general: The purpose of a counterscreen is to sort out artefacts and off-target activity.)
For the next test, the target named is Genome polyprotein (Hepatitis C virus, UniProt Q2Q167). Put plainly: HCV core protein dimerization inhibitors, dose response, biochemical, TR-FRET (AID 2159).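 Also: blocks dimerization of HCV core protein measured by TR-FRET between tagged core106 pairs.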 Set-up: species or system Hepacivirus hominis. In general terms: TR-FRET usually uses a lanthanide donor and a delayed reading to cut background.
A further test addresses T3, Caspase-6 (Homo sapiens, UniProt P55212).
T3 sequence (P55212 whole entry): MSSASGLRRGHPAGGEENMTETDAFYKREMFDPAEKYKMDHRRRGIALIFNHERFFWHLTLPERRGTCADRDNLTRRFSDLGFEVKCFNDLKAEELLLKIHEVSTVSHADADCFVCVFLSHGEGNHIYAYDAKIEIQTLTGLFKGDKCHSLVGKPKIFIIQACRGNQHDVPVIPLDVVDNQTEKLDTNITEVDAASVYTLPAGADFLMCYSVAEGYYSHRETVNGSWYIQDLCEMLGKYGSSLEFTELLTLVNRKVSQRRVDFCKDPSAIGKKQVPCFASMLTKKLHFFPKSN
Put plainly: human caspase-6 inhibitors, dose response, biochemical, VEID-R110 fluorescence, cherry-pick (AID 720632).

Test [3] concerns the target T1, Small ubiquitin-related modifier 1. Put plainly: inhibitors of SUMO1 peptide binding, dose response, biochemical, fluorescence polarization, uHTS hits (AID 624382). In kind it is functional. The note with it: read-out: IC50_Mean.
A further test has as its target Large T antigen (Simian virus 40, UniProt P03070). In kind it is functional, Betapolyomavirus macacae.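 Also: Confirmatory-stage PubChem screen for compounds that inhibit SV40 T antigen.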
In test [4] the target is NAD-dependent protein deacylase sirtuin-5, mitochondrial (Homo sapiens, UniProt Q9NXA8). Description: SIRT5 desuccinylase inhibitors, dose response, biochemical, fluorescence imaging, cherry-pick, set 5 (AID 720591).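 Also: desuccinylation of succinyl peptide AMC substrate read as fluorescence after trypsin release; potency of inhibitors that lower fluorescence and may act on trypsin instead.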
The target in test [5] is T2, Troponin, cardiac muscle. Description: Fluorescence-based biochemical high throughput dose response assay for activators of the calcium sensitivity of cardiac Regulated Thin Filaments (RTF). [Related pubchem assays (depositor defined):AID493008, AID493018, AID504382, AID504383]. Format: protein-complex assay.
For test [6], the target named is Signal transducer and activator of transcription 1-alpha/beta (Homo sapiens, UniProt P42224). Description: STAT3 inhibitors, late-stage profile, late-stage follow-up, cell-based, STAT1 panel, qPCR, cytotoxicity, panel member STAT1 Inhibition (AID 2078). On the technique in general: In qPCR the cycle at which signal appears reflects the starting amount.
Test [7] concerns the target Signal transducer and activator of transcription 3 (Homo sapiens, UniProt P40763). Put plainly: STAT3 inhibitors, late-stage profile, late-stage follow-up, cell-based, STAT1 panel, qPCR, cytotoxicity, panel member STAT3 Inhibition (AID 2078).
Test [8] concerns the target Voltage-dependent T-type calcium channel subunit alpha-1H (Homo sapiens, UniProt O95180). Put plainly: Cav3.2 T-type channel inhibitors, synthesized analogs, SAR follow-up, cell-based, synthetic library set 2, HEK293 HH8, Fluo-4 (AID 493023). In kind it is functional.
The target of test [9] is DNA damage-inducible transcript 3 protein (Mus musculus, UniProt P35639). Format: functional, Cricetulus griseus.
The target of test [10] is T4, Ubiquitin-conjugating enzyme E2 N (Homo sapiens, UniProt P61088).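 Also: Dose-response confirmation in a TR-FRET assay detecting UBC13-driven polyubiquitin chain formation, inhibition measured.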
T4 sequence (P61088 whole entry): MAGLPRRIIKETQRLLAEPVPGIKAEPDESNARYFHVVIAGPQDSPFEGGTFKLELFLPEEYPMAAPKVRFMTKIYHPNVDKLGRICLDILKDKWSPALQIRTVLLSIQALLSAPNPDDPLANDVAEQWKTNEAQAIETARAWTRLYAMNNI
Format: functional.

The target in test [11] is T5, Tyrosine-protein phosphatase non-receptor type 7 (Homo sapiens, UniProt P35236).
T5 sequence (P35236 whole entry): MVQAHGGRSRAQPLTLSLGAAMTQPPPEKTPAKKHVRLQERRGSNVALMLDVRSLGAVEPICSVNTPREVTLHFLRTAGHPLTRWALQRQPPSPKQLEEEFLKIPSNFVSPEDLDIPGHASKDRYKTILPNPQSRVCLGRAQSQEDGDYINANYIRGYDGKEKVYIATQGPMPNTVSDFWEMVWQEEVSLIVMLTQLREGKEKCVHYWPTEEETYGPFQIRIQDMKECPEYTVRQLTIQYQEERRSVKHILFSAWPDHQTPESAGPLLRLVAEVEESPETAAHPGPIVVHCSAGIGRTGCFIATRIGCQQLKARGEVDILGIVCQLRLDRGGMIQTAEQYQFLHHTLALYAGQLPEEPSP
Put plainly: HePTP (PTPN7) phosphatase inhibitor potency, SAR follow-up, biochemical, set 2 (AID 449736). Format: functional.

Test [12] deals with T6, Alkaline phosphatase, tissue-nonspecific isozyme (Homo sapiens, UniProt P05186).
T6 sequence (P05186 whole entry): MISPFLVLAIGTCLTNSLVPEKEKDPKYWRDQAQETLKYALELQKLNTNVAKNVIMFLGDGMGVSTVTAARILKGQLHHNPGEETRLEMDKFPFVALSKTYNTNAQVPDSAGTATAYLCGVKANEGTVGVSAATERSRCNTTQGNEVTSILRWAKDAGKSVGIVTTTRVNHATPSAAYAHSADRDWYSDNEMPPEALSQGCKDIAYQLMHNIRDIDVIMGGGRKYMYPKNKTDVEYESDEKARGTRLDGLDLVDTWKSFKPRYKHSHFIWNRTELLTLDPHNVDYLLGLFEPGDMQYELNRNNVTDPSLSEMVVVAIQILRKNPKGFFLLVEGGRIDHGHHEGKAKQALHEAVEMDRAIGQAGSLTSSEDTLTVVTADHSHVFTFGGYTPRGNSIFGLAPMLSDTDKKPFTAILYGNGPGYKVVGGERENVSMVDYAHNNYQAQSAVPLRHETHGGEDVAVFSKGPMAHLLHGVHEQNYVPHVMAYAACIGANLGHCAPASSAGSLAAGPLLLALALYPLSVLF
Description: human TNAP enzyme inhibitors, SAR follow-up, biochemical, luminescent, dose response (AID 1056).

Test [13] concerns the target Alkaline phosphatase, placental type (Homo sapiens, UniProt P05187). Description: PLAP enzyme inhibitors, confirmation, biochemical, luminescence (AID 1512). In kind it is functional.
The target of test [14] is T7, E3 ubiquitin-protein ligase XIAP (Homo sapiens, UniProt P98170). Description: SAR analysis of Antagonists of IAP-family anti-apoptotic proteins. [Related pubchem assays (depositor defined):AID1018, AID1449, AID1513, AID1514, AID1638].
Test [15] addresses T7, E3 ubiquitin-protein ligase XIAP. Description: SAR analysis of Antagonists of XIAP-Bir3 domain of IAP-family anti-apoptotic proteins. [Related pubchem assays (depositor defined):AID1018, AID1449, AID1513, AID1514, AID1638].
Test [16] addresses T8, Sphingosine 1-phosphate receptor 4 (Homo sapiens, UniProt O95977).
T8 sequence (O95977 whole entry): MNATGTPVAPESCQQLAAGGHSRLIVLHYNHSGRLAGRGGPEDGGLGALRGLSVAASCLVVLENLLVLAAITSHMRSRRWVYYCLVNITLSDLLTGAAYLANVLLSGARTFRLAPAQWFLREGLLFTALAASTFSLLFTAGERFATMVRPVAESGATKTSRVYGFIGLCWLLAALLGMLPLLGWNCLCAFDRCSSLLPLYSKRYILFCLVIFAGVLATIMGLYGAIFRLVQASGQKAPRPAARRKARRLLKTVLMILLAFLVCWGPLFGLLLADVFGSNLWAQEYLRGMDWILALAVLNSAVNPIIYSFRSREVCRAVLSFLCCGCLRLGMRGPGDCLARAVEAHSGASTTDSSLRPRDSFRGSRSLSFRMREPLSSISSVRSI
Put plainly: Late-stage fluorescence dose response cell-based assay to identify agonists of the Sphingosine 1-Phosphate Receptor 4 (S1P4): purchased compounds EC50. [Related pubchem assays (depositor defined):AID1509, AID1523, AID1563, AID1686, AID1701, AID1801]. Format: functional.

Test [17] has as its target T9, Voltage-gated N-type calcium channel alpha-1B subunit/Amyloid beta A4 precursor protein-binding family A member 1 (Homo sapiens, UniProt Q00975+Q02410). In kind it is protein assay.
For test [18], the target named is T9, Voltage-gated N-type calcium channel alpha-1B subunit/Amyloid beta A4 precursor protein-binding family A member 1. In kind it is protein assay. This is another data set of the same source.

T1 sequence (P63165 whole entry): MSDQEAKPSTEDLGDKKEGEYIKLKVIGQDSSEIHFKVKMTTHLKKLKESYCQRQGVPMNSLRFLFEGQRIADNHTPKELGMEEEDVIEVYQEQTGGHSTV
T7 sequence (P98170 whole entry, the tested form may be a part): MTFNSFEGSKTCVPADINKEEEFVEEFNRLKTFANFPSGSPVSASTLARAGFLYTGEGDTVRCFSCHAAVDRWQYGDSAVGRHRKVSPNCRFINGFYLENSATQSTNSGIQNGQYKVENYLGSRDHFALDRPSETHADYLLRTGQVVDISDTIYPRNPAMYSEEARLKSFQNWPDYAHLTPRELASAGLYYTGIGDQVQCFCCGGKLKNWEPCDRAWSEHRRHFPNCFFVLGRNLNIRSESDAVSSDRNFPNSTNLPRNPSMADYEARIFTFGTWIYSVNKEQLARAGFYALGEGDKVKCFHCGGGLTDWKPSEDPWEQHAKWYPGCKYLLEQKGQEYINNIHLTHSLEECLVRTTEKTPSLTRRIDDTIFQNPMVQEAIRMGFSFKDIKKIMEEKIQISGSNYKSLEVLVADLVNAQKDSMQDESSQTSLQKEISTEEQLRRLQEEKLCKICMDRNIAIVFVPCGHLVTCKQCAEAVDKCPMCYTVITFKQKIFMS
T9 sequence (Q00975 whole entry): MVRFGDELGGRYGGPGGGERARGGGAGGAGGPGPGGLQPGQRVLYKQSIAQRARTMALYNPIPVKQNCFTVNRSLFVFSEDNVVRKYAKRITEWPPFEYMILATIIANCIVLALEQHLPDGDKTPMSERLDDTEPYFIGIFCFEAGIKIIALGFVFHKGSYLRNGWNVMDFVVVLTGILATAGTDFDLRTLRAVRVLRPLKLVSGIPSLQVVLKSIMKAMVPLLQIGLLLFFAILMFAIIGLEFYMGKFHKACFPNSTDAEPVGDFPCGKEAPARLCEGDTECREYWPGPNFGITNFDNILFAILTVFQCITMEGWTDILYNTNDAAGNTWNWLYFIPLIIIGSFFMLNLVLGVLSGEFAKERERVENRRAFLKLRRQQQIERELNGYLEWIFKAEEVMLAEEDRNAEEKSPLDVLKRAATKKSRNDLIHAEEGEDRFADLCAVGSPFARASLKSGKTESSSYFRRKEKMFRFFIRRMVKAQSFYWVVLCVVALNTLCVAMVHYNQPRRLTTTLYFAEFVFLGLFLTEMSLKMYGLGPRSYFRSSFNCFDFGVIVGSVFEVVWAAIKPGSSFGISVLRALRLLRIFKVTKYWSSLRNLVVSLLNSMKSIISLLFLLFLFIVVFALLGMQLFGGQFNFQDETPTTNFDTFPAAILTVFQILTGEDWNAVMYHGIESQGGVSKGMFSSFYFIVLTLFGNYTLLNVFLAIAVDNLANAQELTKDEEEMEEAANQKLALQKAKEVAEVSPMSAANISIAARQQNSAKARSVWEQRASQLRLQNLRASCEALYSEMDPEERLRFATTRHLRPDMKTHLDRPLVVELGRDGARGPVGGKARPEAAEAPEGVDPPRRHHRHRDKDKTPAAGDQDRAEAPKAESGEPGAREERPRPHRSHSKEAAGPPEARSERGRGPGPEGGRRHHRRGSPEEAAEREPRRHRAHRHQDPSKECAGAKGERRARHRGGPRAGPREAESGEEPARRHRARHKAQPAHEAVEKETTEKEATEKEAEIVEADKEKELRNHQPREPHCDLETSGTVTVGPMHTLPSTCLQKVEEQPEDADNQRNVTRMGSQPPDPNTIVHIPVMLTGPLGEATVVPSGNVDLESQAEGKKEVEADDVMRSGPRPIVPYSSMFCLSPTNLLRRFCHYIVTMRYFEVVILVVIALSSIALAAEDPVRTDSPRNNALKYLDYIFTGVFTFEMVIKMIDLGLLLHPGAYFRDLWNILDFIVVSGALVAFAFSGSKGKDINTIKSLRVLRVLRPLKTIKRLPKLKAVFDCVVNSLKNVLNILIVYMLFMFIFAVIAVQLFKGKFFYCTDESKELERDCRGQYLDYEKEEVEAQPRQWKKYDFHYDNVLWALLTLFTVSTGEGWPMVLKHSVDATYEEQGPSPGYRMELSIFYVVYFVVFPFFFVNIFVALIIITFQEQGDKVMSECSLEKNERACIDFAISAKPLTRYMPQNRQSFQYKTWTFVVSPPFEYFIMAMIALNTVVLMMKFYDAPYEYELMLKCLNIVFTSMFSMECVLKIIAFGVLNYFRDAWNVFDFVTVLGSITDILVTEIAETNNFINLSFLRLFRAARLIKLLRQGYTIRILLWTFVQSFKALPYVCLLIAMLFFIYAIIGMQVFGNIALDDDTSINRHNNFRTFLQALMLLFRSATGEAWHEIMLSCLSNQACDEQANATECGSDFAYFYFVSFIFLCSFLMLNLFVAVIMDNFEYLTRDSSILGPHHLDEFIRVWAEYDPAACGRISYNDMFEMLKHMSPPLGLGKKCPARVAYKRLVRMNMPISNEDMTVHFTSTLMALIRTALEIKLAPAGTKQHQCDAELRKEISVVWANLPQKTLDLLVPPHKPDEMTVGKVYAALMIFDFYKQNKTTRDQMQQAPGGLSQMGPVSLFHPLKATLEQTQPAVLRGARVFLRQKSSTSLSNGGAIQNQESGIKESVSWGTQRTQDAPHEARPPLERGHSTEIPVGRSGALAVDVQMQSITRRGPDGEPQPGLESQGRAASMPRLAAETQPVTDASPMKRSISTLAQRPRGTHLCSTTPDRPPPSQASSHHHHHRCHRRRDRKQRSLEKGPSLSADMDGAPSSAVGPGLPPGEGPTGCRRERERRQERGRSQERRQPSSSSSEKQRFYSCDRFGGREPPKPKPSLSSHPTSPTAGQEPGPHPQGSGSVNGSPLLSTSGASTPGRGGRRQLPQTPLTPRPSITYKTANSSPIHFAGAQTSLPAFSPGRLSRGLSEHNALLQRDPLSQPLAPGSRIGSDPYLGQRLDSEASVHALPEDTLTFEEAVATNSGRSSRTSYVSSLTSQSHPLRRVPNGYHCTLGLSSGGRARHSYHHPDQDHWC
T9 sequence (Q02410 whole entry): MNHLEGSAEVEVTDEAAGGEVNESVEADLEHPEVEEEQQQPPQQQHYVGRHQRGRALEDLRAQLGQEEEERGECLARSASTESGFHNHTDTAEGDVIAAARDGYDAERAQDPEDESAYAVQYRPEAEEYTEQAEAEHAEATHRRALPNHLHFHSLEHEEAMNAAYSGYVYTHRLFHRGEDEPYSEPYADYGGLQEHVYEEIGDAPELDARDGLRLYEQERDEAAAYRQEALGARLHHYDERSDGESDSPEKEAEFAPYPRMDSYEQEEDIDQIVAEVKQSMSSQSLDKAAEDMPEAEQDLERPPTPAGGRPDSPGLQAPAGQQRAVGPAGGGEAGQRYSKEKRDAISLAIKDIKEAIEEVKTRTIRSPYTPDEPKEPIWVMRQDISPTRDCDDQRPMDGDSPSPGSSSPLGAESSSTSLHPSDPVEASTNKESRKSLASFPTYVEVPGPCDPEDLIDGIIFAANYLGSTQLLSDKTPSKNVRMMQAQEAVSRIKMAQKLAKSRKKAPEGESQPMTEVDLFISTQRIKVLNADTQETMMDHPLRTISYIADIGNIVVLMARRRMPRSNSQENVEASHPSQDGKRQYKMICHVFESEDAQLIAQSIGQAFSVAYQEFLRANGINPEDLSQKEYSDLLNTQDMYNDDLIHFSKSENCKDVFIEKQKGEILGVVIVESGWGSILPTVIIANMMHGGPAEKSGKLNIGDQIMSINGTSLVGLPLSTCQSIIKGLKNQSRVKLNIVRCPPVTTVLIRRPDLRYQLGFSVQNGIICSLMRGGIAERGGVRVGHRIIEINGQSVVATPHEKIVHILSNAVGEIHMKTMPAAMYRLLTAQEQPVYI
Chain of Signal transducer and activator of transcription 3 (P40763 whole entry): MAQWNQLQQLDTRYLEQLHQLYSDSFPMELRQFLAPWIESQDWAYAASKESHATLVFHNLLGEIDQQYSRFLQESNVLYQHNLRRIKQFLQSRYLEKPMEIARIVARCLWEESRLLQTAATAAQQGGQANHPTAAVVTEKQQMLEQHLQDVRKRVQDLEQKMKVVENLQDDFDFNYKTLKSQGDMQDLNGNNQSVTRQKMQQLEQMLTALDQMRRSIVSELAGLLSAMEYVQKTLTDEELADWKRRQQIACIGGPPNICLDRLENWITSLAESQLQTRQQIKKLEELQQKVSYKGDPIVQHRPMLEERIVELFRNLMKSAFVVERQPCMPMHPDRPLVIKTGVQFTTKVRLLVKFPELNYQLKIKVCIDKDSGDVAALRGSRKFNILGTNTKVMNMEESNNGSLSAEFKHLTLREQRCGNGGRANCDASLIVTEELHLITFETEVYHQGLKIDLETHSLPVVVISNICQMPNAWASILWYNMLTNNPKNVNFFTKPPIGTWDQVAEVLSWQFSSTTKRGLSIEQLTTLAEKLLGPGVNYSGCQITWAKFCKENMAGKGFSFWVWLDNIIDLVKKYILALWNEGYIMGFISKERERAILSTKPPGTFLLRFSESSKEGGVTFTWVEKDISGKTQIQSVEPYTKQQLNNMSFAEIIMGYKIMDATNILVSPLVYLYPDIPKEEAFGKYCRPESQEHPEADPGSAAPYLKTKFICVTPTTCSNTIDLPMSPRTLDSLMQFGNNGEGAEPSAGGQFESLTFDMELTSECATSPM
Chain of NAD-dependent protein deacylase sirtuin-5, mitochondrial (Q9NXA8 whole entry): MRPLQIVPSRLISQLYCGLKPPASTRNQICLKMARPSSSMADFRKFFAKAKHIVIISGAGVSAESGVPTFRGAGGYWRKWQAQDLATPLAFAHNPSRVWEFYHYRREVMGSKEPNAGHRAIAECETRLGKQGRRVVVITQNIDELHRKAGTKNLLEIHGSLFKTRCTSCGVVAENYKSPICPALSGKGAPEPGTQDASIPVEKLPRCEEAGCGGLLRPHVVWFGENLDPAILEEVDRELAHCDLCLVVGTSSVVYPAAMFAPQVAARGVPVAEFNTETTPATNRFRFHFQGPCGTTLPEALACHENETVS
Chain of DNA damage-inducible transcript 3 protein (P35639 whole entry): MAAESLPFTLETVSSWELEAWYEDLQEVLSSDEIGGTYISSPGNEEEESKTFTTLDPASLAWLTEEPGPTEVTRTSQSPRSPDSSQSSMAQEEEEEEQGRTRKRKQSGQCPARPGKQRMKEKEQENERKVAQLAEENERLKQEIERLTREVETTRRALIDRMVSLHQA

One may read the AC50 as the concentration giving half of the maximal activity seen. `COCCN(C(=O)COC(=O)c1cc2c(s1)CCC2)c1c(N)n(Cc2ccccc2)c(=O)[nH]c1=O`: the IC50 in [1] was 1.42 µM (active); on Troponin, cardiac muscle [2], 19.7 µM (inactive); against Genome polyprotein, 48.6 µM (not active); in test [3], > 66.6 µM (inactive); at Large T antigen it was 57.7 µM (active). Further, the half-maximal activity concentration (AC50) at Caspase-9 is 12.1 µM (active); on Caspase-8, > 70 µM (inactive); on Caspase-6 it was 0.198 µM (active); in test [4], > 30 µM (inactive).

Broadly, the EC50 is the concentration needed to bring the measured effect to its halfway point. As to `COc1ccc(/C=N/NC(=O)c2cccnc2)cc1CN1CCOCC1`, on Troponin, cardiac muscle [5], the EC50 was > 71.5 µM (inactive).

With `c1ccc(CC2CCN(c3ncnc4sc5c(c34)CCC5)CC2)cc1`, the IC50 in [6] was > 55.7 µM (inactive); in test [7], 20 µM (inactive).

In the case of `CC(C)(C)CCN1CCC[C@H](NC(=O)c2ccc(Cl)cc2Cl)C1`, the EC50 in test [8] is 10 µM (active).

Regarding `CCOC(=O)c1cc(-c2ccccc2)nc2c1c(C)nn2-c1ccccn1`, the “Absolute IC50 (CHOP)” value in test [9] stood at 10 µM. Further, the IC50 in [10] was > 20 µM (inactive).

On to `Cc1ccc(-n2c(N)c(C(=O)N3CCN(c4ccccc4F)CC3)sc2=S)cc1`, for which the IC50 in [11] is > 100 µM (inactive).

In the case of `C=CCn1c(SCC(=O)c2ccc(O)c(O)c2)nnc1-c1ccc(C)cc1`, the IC50 was > 100 µM (inactive) in [12] and 8.57 µM (active) in [13].

For `CN[C@@H](C)C(=O)NC1CCCN(CC(=O)NC2CCc3ccccc3C2)C1=O` (stereo partly drawn), the IC50 in test [14] and in test [15] was > 100 µM (inactive) throughout.

As for `Cc1ccc(Oc2ncc(Cl)cc2Cl)c([N+](=O)[O-])n1`, the EC50 in test [16] was > 50 µM (inactive).

Regarding `COc1ccc(NC(=O)c2cc3c(=O)n(C)c4ccccc4c3s2)cc1OC`, the IC50 in [17] is 8 µM (active); in test [18], > 50 µM (inactive).
